Tested on: C. parvum strain UGA1
Experiment: C. parvum growth inhibition assay (Nluc luminescence in HCT-8 cells)
Type: cell-based, Cryptosporidium parvum
Conditions: Cryptosporidium parvum, HCT-8; for inhibition at 1 µM: single point inhibition at 1 uM, read-out: % inh @ 1 uM C. parvum; for inhibition at 10 µM: single point inhibition at 10 uM, read-out: % inh @ 10 uM C. parvum

Compound | inhibition at 1 µM | inhibition at 10 µM
O[C@H]1CC[C@@H](Nc2cc3[nH]c(-c4cccnc4)cc3cn2)CC1 [Example 251, (1s,4s)-4-(2-(pyridin-3-yl)-1H-pyrrolo[3,2-c]pyridin-6-ylamino)cyclohexanol] | 0 to 33% | 0 to 33%
COCCOc1ccc(C(=O)Nc2cc3[nH]c(-c4ccnc(OC)n4)cc3cn2)cc1OC [Example 252, 3-methoxy-4-(2-methoxyethoxy)-N-(2-(2-methoxypyrimidin-4-yl)-1H-pyrrolo[3,2-c]pyridin-6-yl)benzamide] | 0 to 33% | 0 to 33%
CCOc1nccc(-c2cc3cnc(NC(=O)[C@H]4C[C@H](O)C4)cc3[nH]2)n1 [Example 253, (1r,3r)-N-(2-(2-ethoxypyrimidin-4-yl)-1H-pyrrolo[3,2-c]pyridin-6-yl)-3-hydroxycyclobutanecarboxamide] | 0 to 33% | 0 to 33%
Cn1cc(C(=O)Nc2cc3[nH]c(-c4cc(C(F)(F)F)ncn4)cc3cn2)cn1 [Example 254, 1-methyl-N-(2-(6-(trifluoromethyl)pyrimidin-4-yl)-1H-pyrrolo[3,2-c]pyridin-6-yl)-1H-pyrazole-4-carboxamide] | 0 to 33% | 0 to 33%
CN1CCC(c2cc3cnc(NC(=O)C4CC4)cc3[nH]2)CC1 [Example 255, N-(2-(1-methylpiperidin-4-yl)-1H-pyrrolo[3,2-c]pyridin-6-yl)cyclopropanecarboxamide] | 0 to 33% | 0 to 33%
COc1nccc(-c2cc3cnc(NC(=O)c4cnn(C)c4)cc3n2C)n1 [Example 256, N-(2-(2-methoxypyrimidin-4-yl)-1-methyl-1H-pyrrolo[3,2-c]pyridin-6-yl)-1-methyl-1H-pyrazole-4-carboxamide] | 0 to 33% | 0 to 33%
CN(C(=O)c1cnn(C)c1)c1cc2[nH]c(-c3ccnc(NCC(F)(F)F)n3)cc2cn1 [Example 257, N,1-dimethyl-N-(2-(2-(2,2,2-trifluoroethylamino)pyrimidin-4-yl)-1H-pyrrolo[3,2-c]pyridin-6-yl)-1H-pyrazole-4-carboxamide] | 0 to 33% | 0 to 33%
COc1ccc(Nc2cc3c(cn2)cc(-c2cnn(C)c2)n3C)c(C)c1 [Example 258, N-(4-methoxy-2-methylphenyl)-1-methyl-2-(1-methyl-1H-pyrazol-4-yl)-1H-pyrrolo[3,2-c]pyridin-6-amine] | 0 to 33% | 0 to 33%
Cn1cc(C(=O)Nc2cc3[nH]c(C4CCOCC4)cc3cn2)cn1 [Example 259, 1-methyl-N-(2-(tetrahydro-2H-pyran-4-yl)-1H-pyrrolo[3,2-c]pyridin-6-yl)-1H-pyrazole-4-carboxamide] | 0 to 33% | 0 to 33%
COCc1cc2cnc(NC(=O)c3cnn(C)c3)cc2[nH]1 [Example 260, N-(2-(methoxymethyl)-1H-pyrrolo[3,2-c]pyridin-6-yl)-1-methyl-1H-pyrazole-4-carboxamide] | 0 to 33% | 0 to 33%
Cc1cc(-c2cc3cnc(NC(=O)N4CCCC4)cc3[nH]2)ccn1 [Example 261, N-(2-(2-methylpyridin-4-yl)-1H-pyrrolo[3,2-c]pyridin-6-yl)pyrrolidine-1-carboxamide] | 0 to 33% | 0 to 33%
Cn1cc(C(=O)Nc2cc3[nH]c(-c4nc[nH]n4)cc3cn2)cn1 [Example 264, N-(2-(1H-1,2,4-triazol-3-yl)-1H-pyrrolo[3,2-c]pyridin-6-yl)-1-methyl-1H-pyrazole-4-carboxamide] | 0 to 33% | 0 to 33%
Cn1c(-c2ccccc2)cc2cnc(NC(=O)C3CCOCC3)cc21 [Example 265, N-(1-methyl-2-phenyl-1H-pyrrolo[3,2-c]pyridin-6-yl)tetrahydro-2H-pyran-4-carboxamide] | 0 to 33% | 0 to 33%
Cn1c(-c2cccnc2)cc2cnc(Nc3cnn(C4CCOCC4)c3)cc21 [Example 266, 1-methyl-2-(pyridin-3-yl)-N-(1-(tetrahydro-2H-pyran-4-yl)-1H-pyrazol-4-yl)-1H-pyrrolo[3,2-c]pyridin-6-amine] | 0 to 33% | 0 to 33%
Cc1ncc(-c2cc3cnc(NC(=O)c4cnn(C)c4)cc3[nH]2)o1 [Example 267, 1-methyl-N-(2-(2-methyloxazol-5-yl)-1H-pyrrolo[3,2-c]pyridin-6-yl)-1H-pyrazole-4-carboxamide] | 0 to 33% | 0 to 33%
O=C(Nc1cc2[nH]c(-c3ccc(F)cn3)cc2cn1)C1CC1 [Example 268, N-(2-(5-fluoropyridin-2-yl)-1H-pyrrolo[3,2-c]pyridin-6-yl)cyclopropanecarboxamide] | 0 to 33% | 0 to 33%
COc1nccc(-c2cc3cnc(NC(=O)c4cccc5[nH]ncc45)cc3[nH]2)n1 [Example 269, N-(2-(2-methoxypyrimidin-4-yl)-1H-pyrrolo[3,2-c]pyridin-6-yl)-1H-indazole-4-carboxamide] | 0 to 33% | 0 to 33%
CCOc1nccc(-c2cc3cnc(NC(=O)c4cnn([C@H]5C[C@H](O)C5)c4)cc3[nH]2)n1 [Example 270, N-(2-(2-ethoxypyrimidin-4-yl)-1H-pyrrolo[3,2-c]pyridin-6-yl)-1-((1r,3r)-3-hydroxycyclobutyl)-1H-pyrazole-4-carboxamide] | 0 to 33% | 0 to 33%

Compound | inhibition at 1 µM | inhibition at 10 µM
c1ccc(Nc2cc3[nH]c(-c4ccccc4)cc3cn2)cc1 [Example 271, N,2-diphenyl-1H-pyrrolo[3,2-c]pyridin-6-amine] | 0 to 33% | 0 to 33%
c1cc(Nc2cc3[nH]c(-c4cccnc4)cc3cn2)cc(-c2nc[nH]n2)c1 [Example 272, N-(3-(1H-1,2,4-triazol-3-yl)phenyl)-2-(pyridin-3-yl)-1H-pyrrolo[3,2-c]pyridin-6-amine] | 0 to 33% | 0 to 33%
CC(C)CNc1cc2[nH]c(-c3cccnc3)cc2cn1 [Example 273, N-isobutyl-2-(pyridin-3-yl)-1H-pyrrolo[3,2-c]pyridin-6-amine] | 0 to 33% | 0 to 33%
CO[C@H]1CC[C@H](Nc2cc3[nH]c(-c4cccnc4)cc3cn2)CC1 [Example 274, N-((1r,4r)-4-methoxycyclohexyl)-2-(pyridin-3-yl)-1H-pyrrolo[3,2-c]pyridin-6-amine] | 0 to 33% | 0 to 33%
Cn1c(-c2cccnc2)cc2cnc(Nc3cccc(-c4nc[nH]n4)c3)cc21 [Example 275, N-(3-(1H-1,2,4-triazol-3-yl)phenyl)-1-methyl-2-(pyridin-3-yl)-1H-pyrrolo[3,2-c]pyridin-6-amine] | 0 to 33% | 0 to 33%
O=C(Nc1cc2[nH]c(-c3cccnc3)cc2cn1)C1CCCC1 [Example 276, N-(2-(pyridin-3-yl)-1H-pyrrolo[3,2-c]pyridin-6-yl)cyclopentanecarboxamide] | 0 to 33% | 0 to 33%
O=C(Nc1cc2[nH]c(-c3ccncc3)cc2cn1)c1ccccc1 [Example 277, N-(2-(pyridin-4-yl)-1H-pyrrolo[3,2-c]pyridin-6-yl)benzamide] | 0 to 33% | 0 to 33%
Cc1nn(C)cc1C(=O)Nc1cc2[nH]c(-c3ccncc3)cc2cn1 [Example 278, 1,3-dimethyl-N-(2-(pyridin-4-yl)-1H-pyrrolo[3,2-c]pyridin-6-yl)-1H-pyrazole-4-carboxamide] | 0 to 33% | 0 to 33%
Cn1cc(C(=O)Nc2cc3c(cn2)cc(C#N)n3C)cn1 [Example 279, N-(2-cyano-1-methyl-1H-pyrrolo[3,2-c]pyridin-6-yl)-1-methyl-1H-pyrazole-4-carboxamide] | 0 to 33% | 0 to 33%
Cn1cc(C(=O)Nc2cc3[nH]c(C#N)cc3cn2)cn1 [Example 280, N-(2-cyano-1H-pyrrolo[3,2-c]pyridin-6-yl)-1-methyl-1H-pyrazole-4-carboxamide] | 0 to 33% | 0 to 33%
Cc1cn(C)nc1C(=O)Nc1cc2[nH]c(-c3ccncc3)cc2cn1 [Example 281, 1,4-dimethyl-N-(2-(pyridin-4-yl)-1H-pyrrolo[3,2-c]pyridin-6-yl)-1H-pyrazole-3-carboxamide] | 0 to 33% | 0 to 33%
Cc1cc(C(=O)Nc2cc3[nH]c(-c4ccncc4)cc3cn2)nn1C [Example 282, 1,5-dimethyl-N-(2-(pyridin-4-yl)-1H-pyrrolo[3,2-c]pyridin-6-yl)-1H-pyrazole-3-carboxamide] | 0 to 33% | 0 to 33%
Cc1nccc(-c2cc3cnc(NC(=O)c4cnn(C)c4)cc3[nH]2)c1F [Example 283, N-(2-(3-fluoro-2-methylpyridin-4-yl)-1H-pyrrolo[3,2-c]pyridin-6-yl)-1-methyl-1H-pyrazole-4-carboxamide] | 0 to 33% | 0 to 33%
Cn1cc(C(=O)Nc2cc3[nH]c(-c4ccnc(C(F)(F)F)c4)cc3cn2)cn1 [Example 284, 1-methyl-N-(2-(2-(trifluoromethyl)pyridin-4-yl)-1H-pyrrolo[3,2-c]pyridin-6-yl)-1H-pyrazole-4-carboxamide] | 0 to 33% | 0 to 33%
Cc1cc2cnc(NC(=O)c3cnn(C)c3)cc2[nH]1 [Example 285, 1-methyl-N-(2-methyl-1H-pyrrolo[3,2-c]pyridin-6-yl)-1H-pyrazole-4-carboxamide] | 0 to 33% | 0 to 33%
COc1cc(-c2cc3cnc(NC(=O)c4cnn(C)c4)cc3[nH]2)ccn1 [Example 286, N-(2-(2-methoxypyridin-4-yl)-1H-pyrrolo[3,2-c]pyridin-6-yl)-1-methyl-1H-pyrazole-4-carboxamide] | 0 to 33% | 0 to 33%
Cn1cc(C(=O)Nc2cc3[nH]c(-c4ccnc(C(F)(F)F)n4)cc3cn2)cn1 [Example 287, 1-methyl-N-(2-(2-(trifluoromethyl)pyrimidin-4-yl)-1H-pyrrolo[3,2-c]pyridin-6-yl)-1H-pyrazole-4-carboxamide] | 0 to 33% | 0 to 33%

From patent US20240124444A1 (Celgene Corporation, priority 2020, published 2024)
